{"source": "ChEMBL document CHEMBL5385913", "about": "“First-in-Class Dual EZH2-HSP90 Inhibitor Eliciting Striking Antiglioblastoma Activity In Vitro and In Vivo” (J Med Chem, 2024)", "key": {"GBM": {"system": "GBM", "experiment": "Antitumor activity against TMZ-resistant patient-derived human GBM cells xenografted in NOD.CB17-Prkdcscid/NCrCrl mouse assessed as reduction in tumor growth at 5 to 15 mg/kg, ip treated twice per week in presence of Tazemetostat", "assay_type": "functional, organism-based", "details": "dose 5-15 mg/kg"}, "[1]": {"experiment": "Toxicity in NOD.CB17-Prkdcscid/NCrCrl mouse xenografted with TMZ-resistant patient-derived human GBM cells at 5 to 15 mg/kg, ip treated twice per week in presence of Tazemetostat", "assay_type": "organism-based", "details": "in vivo, dose 5-15 mg/kg"}}, "note": "Calls of active or inactive are those of the source. The calls are words filed in the database; no cut-off is given here.", "data": [{"smiles": "CC(C)c1cc(-c2n[nH]c(=O)n2-c2ccc3c(ccn3C)c2)c(O)cc1O", "note": "[GANETESPIB]", "values": [{"measurement": "Activity", "setting": "GBM", "result": "Active"}, {"measurement": "Activity", "setting": "[1]", "result": "Toxic"}]}]}
